# Source: US20080125432A1 (Devgen NV, priority 2004, published 2008)
# Tested on: human Kv4.3/KChIP2.2 potassium channel
# Assay: Whole cell patch clamp, CHO-K1 cells stably expressing human Kv4.3/KChIP2.2
# Assay type: cell-based
# Settings: selectivity for Kv4.3 vs hERG (Patch Clamp test); >5 considered very selective
row,Compound,Ratio hERG/Kv4.3
1,"Cc1nc(Nc2ccc(Cl)cc2)sc1C(=O)N[C@@H]1CCC[C@H]1OCc1ccccc1 [Compound 30, 2-(4-chloro-phenylamino)-4-methyl-thiazole-5-carboxylic acid (1R,2R)-2-(benzyloxycyclopent-1-yl) amide]",8.7
2,"COc1ccc(CNC(=O)c2sc(Nc3ccc(Br)cc3)nc2C)cc1 [Compound 60, 2-(4-bromo-phenylamino)-4-methyl-thiazole-5-carboxylic acid 4-methoxy-benzylamide]",7.7
3,COc1cccc([C@@H](C)NC(=O)c2sc(Nc3cc(Cl)ccc3OC)nc2C)c1 [Compound 34],5.4
4,"Cc1nc(Nc2ccc(Br)cc2)sc1C(=O)NCc1ccc(N(C)C)cc1 [Compound 64, 2-(4-bromo-phenylamino)-4-methyl-thiazole-5-carboxylic acid 4-dimethylamino-benzylamide]",>120
5,"2-(4-bromo-phenylamino)-4-methyl-thiazole-5-carboxylic acid 1,2,3,4-tetrahydroisoquinolinamide [Compound 66]",29.1
6,"COc1ccccc1Nc1nc(C)c(C(=O)N[C@@H](C)c2ccc3ccccc3c2)s1 [Compound 55, 2-(2-methoxy-phenylamino)-4-methyl-thiazole-5-carboxylic acid (S)-1-(2-naphtalen-2-yl-ethyl)-amide]",5.0
7,"Cc1nc(Nc2ccc(Br)cc2)sc1C(=O)NCc1cccc2ccccc12 [Compound 56, 2-(4-bromo-phenylamino)-4-methyl-thiazole-5-carboxylic acid (naphtalen-1-yl-methyl)-amide]",6.6
8,"COc1cc(CNC(=O)c2sc(Nc3ccc(Br)cc3)nc2C)cc(OC)c1 [Compound 65, 2-(4-bromo-phenylamino)-4-methyl-thiazole-5-carboxylic acid 3,5-dimethoxy-benzylamide]",9.1
9,"Cc1nc(Nc2ccc(Br)cc2)sc1C(=O)N[C@H](C)c1ccc2ccccc2c1 [Compound 19, 2-(4-bromo-phenylamino)-4-methyl-thiazole-5-carboxylic acid (R)-1-(naphthalen-2-yl)ethyl amide]",33.1
10,"Cc1nc(Nc2ccc(Br)cc2)sc1C(=O)NCc1ccc(F)c(C(F)(F)F)c1 [Compound 63, 2-(4-bromo-phenylamino)-4-methyl-thiazole-5-carboxylic acid 4-fluoro-3-trifluoromethyl-benzylamide]",33.1
11,"Cc1nc(Nc2ccc(Cl)cc2)sc1C(=O)N[C@@H](C)c1ccc2ccccc2c1 [Compound 54, 2-(4-chloro-phenylamino)-4-methyl-thiazole-5-carboxylic acid (S)-1-(2-naphtalen-2-yl-ethyl)-amide]",6.6
12,"Cc1nc(Nc2ccc(Cl)cc2)sc1C(=O)N[C@H](C)c1ccc2ccccc2c1 [Compound 52, 2-(4-chloro-phenylamino)-4-methyl-thiazole-5-carboxylic acid (R)-1-(2-naphtalen-2-yl-ethyl)-amide]",65.4
13,"COc1ccc(OC)c(Nc2nc(C)c(C(=O)N[C@@H]3CCC[C@H]3OCc3ccccc3)s2)c1 [Compound 33, 2-(2,5-dimethoxyphenylamino)-4-methylthiazole-5-carboxylic acid (1R,2R)-2-(benzyloxycyclopent-1-yl) amide]",10.0
14,"Cc1nc(Nc2ccc(Br)cc2)sc1C(=O)N[C@@H](C)c1ccc2ccccc2c1 [Compound 18, 2-(4-bromo-phenylamino)-4-methyl-thiazole-5-carboxylic acid (S)-1-(naphthalen-2-yl)ethyl amide]",6.9
15,"COc1ccccc1Nc1nc(C)c(C(=O)N[C@H]2CCC[C@@H]2OCc2ccccc2)s1 [Compound 68, 2-(2-methoxy-phenylamino)-4-methyl-thiazole-5-carboxylic acid (1S,2S)-2-(benzyloxycyclopent-1-yl) amide]",14.7
16,"COc1ccccc1Nc1nc(C)c(C(=O)N[C@@H]2CCC[C@H]2OCc2ccccc2)s1 [Compound 31, 2-(2-methoxy-phenylamino)-4-methyl-thiazole-5-carboxylic acid (1R,2R)-2-(benzyloxycyclopent-1-yl) amide]",8.7

# Biological target: T1, Kv1.5 potassium channel (Homo sapiens, UniProt P22460)
# T1 construct: expressed in transfected cells
# T1 sequence (P22460 whole entry): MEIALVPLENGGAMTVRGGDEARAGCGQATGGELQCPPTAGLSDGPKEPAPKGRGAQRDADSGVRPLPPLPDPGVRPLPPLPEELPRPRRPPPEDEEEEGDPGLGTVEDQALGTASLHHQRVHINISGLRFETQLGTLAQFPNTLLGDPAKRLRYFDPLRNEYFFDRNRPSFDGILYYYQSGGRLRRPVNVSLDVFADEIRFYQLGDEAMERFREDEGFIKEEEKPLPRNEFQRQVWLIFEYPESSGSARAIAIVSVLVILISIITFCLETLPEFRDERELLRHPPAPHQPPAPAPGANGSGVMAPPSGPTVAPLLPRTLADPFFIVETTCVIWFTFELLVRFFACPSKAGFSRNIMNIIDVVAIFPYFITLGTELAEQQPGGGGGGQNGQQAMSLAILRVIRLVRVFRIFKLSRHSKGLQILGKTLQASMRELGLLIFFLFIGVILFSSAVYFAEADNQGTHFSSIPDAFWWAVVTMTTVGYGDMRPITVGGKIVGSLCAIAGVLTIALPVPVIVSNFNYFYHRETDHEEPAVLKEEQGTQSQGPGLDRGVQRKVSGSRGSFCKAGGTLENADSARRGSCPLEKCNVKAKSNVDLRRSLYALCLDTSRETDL
# Assay: Patch clamp, CHO cells stably expressing the Kv1.5 potassium channel
# Assay type: cell-based
# Settings: 1 μM; Kv1.5 mediated current
# Experimental: The cDNA coding for Kv1.5 (GenBank Acc. No. M55513) was cloned into the pcDNA6-vector (Invitrogen, Leek, Netherlands). A C-terminal epitope-tag was introduced via PCR. The plasmid was sequenced and subsequently introduced into cells. Clonal cell lines stably expressing the Kv1.5 channel were established. Expression of protein was analyzed by means of immunofluorescence using antibodies directed against the epitope-tag. The functional expression of the ion channels was validated electrophysiologically.
# The experiments were performed using CHO cells stably expressing the Kv1.5 potassium channel.
# From a HP of −60 mV cells were hyperpolarised for 100 ms to […], followed by a 500 ms depolarisation to +50 mV. The current amplitude at the end of the test pulse to +50 mV was used for the analysis. Pulse cycling rate was 10 s (0.1 Hz).
# The application protocol of test compounds is depicted in FIG. 7. The first 14 stimuli were required to achieve steady state of the current amplitude. Unspecific current reduction was calculated and served for correcting procedures during data analysis. After the 14th stimulus the test compound application was started (indicated by an arrow) via teflon and silicone tubings and was assumed to reach the cell after 6 additional stimuli. The perfusion is adjusted by using a defined drop rate of 10 drops per 10-12 s. Up to three concentrations were applied successively to one cell followed by a wash period of 5 minutes. Total number of stimuli was 140. Effect of the test compound was analysed between stimulus nos. 21 and 50 (5 min., long dashed line) for the first concentration, between stimulus nos. 51 and 80 (5 min., short dashed line) for an additional 5 minutes. If the cell was still stable, a wash was added afterwards. Start of test compound application at the given concentration is indicated by arrows. Number of stimuli of each single episode are shown in the protocol of FIG. 7.
# The effects of the compounds were investigated at one concentration (2 μM or 1 μM) on the Kv1.5-mediated potassium channel. For comparison, the vehicle control experiments on the Kv1.5 mediated potassium channel. Results are presented in 9Table 9
row,Compound,Relative remaining current (mean after 8-10 min) [%]
1,"COc1ccccc1Nc1ccc(C(=O)N[C@H]2CCC[C@@H]2OCc2ccccc2)s1 [Compound 75, 2-(2-methoxy-phenylamino)-thiophene-5-carboxylic acid ((1S,2S)-2-benzyloxycyclopent-1-yl) amide]",77
2,"Cc1nc(Nc2ccc3occc3c2)sc1C(=O)N[C@H]1CCC[C@@H]1OCc1ccccc1 [Compound 126, 2-(benzofuran-5-ylamino)-4-methyl-thiazole-5-carboxylic acid ((1S,2S)-2-benzyloxycyclopent-1-yl) amide]",86
3,"Cc1nc(Sc2ccccc2)sc1C(=O)N[C@H]1CCC[C@@H]1OCc1ccccc1 [Compound 81, 4-methyl-2-phenylsulfanyl-thiazole-5-carboxylic acid ((1S,2S)-2-benzyloxycyclopent-1-yl) amide]",44
4,"Cc1nc(Nc2cccc3cccnc23)sc1C(=O)N[C@H]1CCC[C@@H]1OCc1ccccc1 [Compound 94, 4-methyl-2-(quinolin-8-ylamino)-thiazole-5-carboxylic acid ((1S,2S)-2-benzyloxycyclopent-1-yl) amide]",79

# Same assay, conditions: 2 μM; Kv1.5 mediated current; fraction, cell also prints %
Compound,Relative remaining current (mean after 8-10 min),Relative remaining current (mean after 5 min)
"COc1ccccc1Nc1nc(C)c(C(=O)N[C@H]2CCC[C@@H]2OCc2ccccc2)s1 [Compound 68, 2-(2-methoxy-phenylamino)-4-methyl-thiazole-5-carboxylic acid (1S,2S)-2-(benzyloxycyclopent-1-yl) amide]",0.51 (51%),0.66 (66%)

# Tested on: not given
# Assay: not given
# Settings: not given
row,Compound,melting point [°C]
1,"Cc1nc(NC(=O)c2ccc(C(C)(C)C)cc2)sc1C(=O)N[C@H]1CCC[C@@H]1OCc1ccccc1 [Compound 180, 2-(4-tert-butyl-benzoylamino)-4-methyl-thiazole-5-carboxylic acid ((1S,2S)-2-benzyloxycyclopent-1-yl) amide]",88.7 to 90
2,"COc1ccccc1Nc1ccc(C(=O)N[C@H]2CCC[C@@H]2OCc2ccccc2)s1 [Compound 75, 2-(2-methoxy-phenylamino)-thiophene-5-carboxylic acid ((1S,2S)-2-benzyloxycyclopent-1-yl) amide]",69.7 to 71.6
3,"COc1ccccc1Nc1nc(C)c(C(=O)NCc2ccc3c(c2)CCO3)s1 [Compound 104, 2-(2-methoxy-phenylamino)-4-methyl-thiazole-5-carboxylic acid (2,3-dihydro-benzofuran-5-ylmethyl)-amide]",136.5 to 140.1
4,"COc1ccccc1Nc1nc(C)c(C(=O)NCc2ccc(N(C)C)cc2)s1 [Compound 105, 2-(2-methoxy-phenylamino)-4-methyl-thiazole-5-carboxylic acid 4-dimethylamino-benzylamide]",183.3 to 185.2
5,"Cc1nc(Nc2ccc3occc3c2)sc1C(=O)N[C@H]1CCC[C@@H]1OCc1ccccc1 [Compound 126, 2-(benzofuran-5-ylamino)-4-methyl-thiazole-5-carboxylic acid ((1S,2S)-2-benzyloxycyclopent-1-yl) amide]",164.4 to 169.3
6,"COc1ccccc1Nc1nccc(C(=O)N[C@H]2CCC[C@@H]2OCc2ccccc2)n1 [Compound 76, 2-(2-methoxy-phenylamino)-pyrimidine-4-carboxylic acid ((1S,2S)-2-benzyloxycyclopent-1-yl) amide]",97.3 to 99.8
7,"Cc1nc(Sc2ccccc2)sc1C(=O)N[C@H]1CCC[C@@H]1OCc1ccccc1 [Compound 81, 4-methyl-2-phenylsulfanyl-thiazole-5-carboxylic acid ((1S,2S)-2-benzyloxycyclopent-1-yl) amide]",129.5 to 132.4
8,COc1ccccc1Nc1nc(C)c(C(=O)NCc2ccccc2SC)s1 [Compound 97],66.5
9,"COc1ccccc1Nc1nc(C)c(C(=O)NCc2c(C)cccc2Cl)s1 [Compound 98, 2-(2-methoxy-phenylamino)-4-methyl-thiazole-5-carboxylic acid 2-chloro-6-methyl-benzylamide]",105.4 to 107.6
10,Cc1nc(Nc2ccc3c(c2)OCCO3)sc1C(=O)N[C@H]1CCC[C@@H]1OCc1ccccc1 [Compound 95],178 to 180.1
11,"COc1ccccc1Nc1nc(C)c(C(=O)NCc2ccc(Br)cc2)s1 [Compound 108, 2-(2-methoxy-phenylamino)-4-methyl-thiazole-5-carboxylic acid 4-bromo-benzylamide]",150.7 to 154.2
12,Cc1nc(Nc2cccc3ccccc23)sc1C(=O)N[C@H]1CCC[C@@H]1OCc1ccccc1 [Compound 93],102.4 to 108.2
13,"COc1ccccc1Nc1nc(C)c(C(=O)NCc2ccc(C(C)(C)C)cc2)s1 [Compound 106, 2-(2-methoxy-phenylamino)-4-methyl-thiazole-5-carboxylic acid 4-tert-butyl-benzylamide]",168.5 to 169.4
